Measurements taken from patent US20260152503A1, “SPIROBICYCLIC COMPOUNDS” (ACERAND THERAPEUTICS (HONG KONG) LIMITED, priority 2022, published 2026).

Experiments:
Assay type in all cases: cell-based
FGFR2 = target: T1, FGFR2 (Homo sapiens, UniProt P21802, K310R/N549K); experiment: pERK potency assay (In Cell ELISA), AN3CA cells; details: for IC50: pERK, AN3CA (FGFR2/k310R, N549K) cells, 3 hours; for FGFR3 IC50/FGFR2 IC50 / FGFR1 IC50/FGFR2 IC50: selectivity ratio, pERK potency; for FGFR3 IC50/FGFR2 IC50: FGFR2 relative to FGFR3; for FGFR1 IC50/FGFR2 IC50: FGFR2 relative to FGFR1
T1 construct: in FGFR aberrations of AN3CA (FGFR2/k310R, N549K); host or cells: AN3CA
Source text: (§1) The purpose of this assay is to measure the ability of test compounds to inhibit FGFR mediated downstream signaling cascades, i.e., ERK phosphorylation in cells with FGFR aberrations. FGFR aberrations become constitutively active and thus induces cascades of cellular signaling events that result in increased phosphorylation of ERK at Threonine 202 and Tyrosine 204 (pERK). The procedure called In Cell ELISA described below measures the level of cellular pERK in response to FGFR specific inhibitor compounds in FGFR aberrations of AN3CA (FGFR2/k310R, N549K), DMS114 (FGFR1 amplification), RT112 (FGFR3 overexpression/FGFR3-TACC3 fusion) and Hep3B (FGF19 amplification) cells. AN3CA, DMS114 and Hep3B cells are from ATCC. RT112 cells are from Sigma. DMS114 cells are grown and maintained using RPMI-1640 medium supplemented with 10% heat-inactivated fetal bovine serum. AN3CA, Hep3B and RT112 cells are grown and maintained using DMEM supplemented with 10% heat-inactivated fetal bovine serum. On the day before test compound addition, cells are plated in poly-D-lysine coated 96-well cell culture plates (Corning® BioCoat® Cat #356640) at 40000 cells/well/100 μL and grown overnight in a 37° C., 5% CO2 incubator. Test compounds are prepared with 4-fold serial dilutions in DMSO, with a top concentration of 10 μM. On the day of the assay, 50 μL of test compound diluted in media was added to each well of cell culture plate with the final concentration of compounds spanning from 0.000038 μM to 10 μM. After compound addition, cells are incubated for 3 hours at 37° C., 5% CO2 and then the culture medium is removed. Cells are fixed with 4% formaldehyde in phosphate-buffered saline (PBS) and incubated at RT for 20 min. The plate is then washed three times with PBST (PBS with 0.05% tween-20), followed by the incubation with 100 μL of pre-cooled methanol at −20° C. for 20 min. After incubation, methanol is removed, and the plate is washed once with PBST. Cells are permeabilized with 100 µL/well of 0.1% Triton X-100 in PBS at RT for 20 min and then quenched with quenching buffer (PBST containing 1% H2O2 and 0.1% sodium azide) for 20 min at RT with gentle shaking. After washing once with PBST, blocking buffer (250 ul/well, Pierce™ Protein-Free-PBS Blocking Buffer, Cat #37572) was then added to the cells for 1-h incubation at RT, followed by anti-pERK antibody (cell signaling, 1:1000 dilution in 5% BSA in PBST) incubation overnight at 4° C. and secondary antibody-HRP (Jackson immunoresearch, 1:3000 dilution in 5% BSA in PBST) incubation at RT for 1 h. PBST wash is carried out after each step three times. Before the addition of the substrate (Advansta ELISABright), the plate is washed with PBS twice to remove detergent residues. Cellular pERK level is determined using the microplate reader (Biotek Synergy H1) to detect the chemiluminescence signal. IC50 is determined by fitting a 4-parameter sigmoidal concentration-response model. FGFR wild type cells (H1975, PC-9 and AGS) are used to serve as negative control (FGFR selectivity) with the same assay procedures described above.

FGFR1 = target: T2, FGFR1 (Homo sapiens, UniProt P11362); experiment: pERK potency assay (In Cell ELISA), DMS114 cells; details: DMS114 (FGFR1 amplification) cells, 3 hours
T2 construct: DMS114 (FGFR1 amplification); host or cells: DMS114
Source text: as §1

FGFR3 = target: T3, FGFR3 (Homo sapiens, UniProt P22607); experiment: pERK potency assay (In Cell ELISA), RT112 cells; details: RT112 (FGFR3 overexpression/FGFR3-TACC3 fusion) cells, 3 hours
T3 construct: RT112 (FGFR3 overexpression/FGFR3-TACC3 fusion); host or cells: RT112; the other entry of the earlier key: TACC3 (Q9Y6A5, Transforming acidic coiled-coil-containing protein 3)
Source text: as §1

T1 sequence (P21802 22-821 K310R/N549K): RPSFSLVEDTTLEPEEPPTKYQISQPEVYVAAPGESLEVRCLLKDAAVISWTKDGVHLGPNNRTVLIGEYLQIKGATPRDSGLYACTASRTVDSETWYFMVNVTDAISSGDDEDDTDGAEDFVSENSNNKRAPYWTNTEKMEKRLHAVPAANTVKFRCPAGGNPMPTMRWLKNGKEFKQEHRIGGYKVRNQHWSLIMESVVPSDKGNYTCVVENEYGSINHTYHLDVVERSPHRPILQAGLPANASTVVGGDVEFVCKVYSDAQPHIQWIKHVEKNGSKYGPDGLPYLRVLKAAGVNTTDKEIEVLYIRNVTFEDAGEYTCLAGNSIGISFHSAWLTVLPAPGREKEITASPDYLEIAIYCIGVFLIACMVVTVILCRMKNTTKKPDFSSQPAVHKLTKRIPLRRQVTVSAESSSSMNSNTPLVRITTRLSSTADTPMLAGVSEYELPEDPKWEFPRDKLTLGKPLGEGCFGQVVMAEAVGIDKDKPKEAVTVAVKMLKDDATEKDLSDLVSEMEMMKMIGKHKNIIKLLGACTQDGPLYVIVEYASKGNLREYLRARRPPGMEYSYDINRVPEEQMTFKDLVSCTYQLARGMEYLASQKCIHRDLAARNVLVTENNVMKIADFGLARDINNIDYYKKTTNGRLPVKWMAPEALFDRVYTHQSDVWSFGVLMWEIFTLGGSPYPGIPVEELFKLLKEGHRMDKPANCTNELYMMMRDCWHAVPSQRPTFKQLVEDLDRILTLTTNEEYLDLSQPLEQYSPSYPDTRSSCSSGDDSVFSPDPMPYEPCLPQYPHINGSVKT
T2 sequence (P11362 22-822): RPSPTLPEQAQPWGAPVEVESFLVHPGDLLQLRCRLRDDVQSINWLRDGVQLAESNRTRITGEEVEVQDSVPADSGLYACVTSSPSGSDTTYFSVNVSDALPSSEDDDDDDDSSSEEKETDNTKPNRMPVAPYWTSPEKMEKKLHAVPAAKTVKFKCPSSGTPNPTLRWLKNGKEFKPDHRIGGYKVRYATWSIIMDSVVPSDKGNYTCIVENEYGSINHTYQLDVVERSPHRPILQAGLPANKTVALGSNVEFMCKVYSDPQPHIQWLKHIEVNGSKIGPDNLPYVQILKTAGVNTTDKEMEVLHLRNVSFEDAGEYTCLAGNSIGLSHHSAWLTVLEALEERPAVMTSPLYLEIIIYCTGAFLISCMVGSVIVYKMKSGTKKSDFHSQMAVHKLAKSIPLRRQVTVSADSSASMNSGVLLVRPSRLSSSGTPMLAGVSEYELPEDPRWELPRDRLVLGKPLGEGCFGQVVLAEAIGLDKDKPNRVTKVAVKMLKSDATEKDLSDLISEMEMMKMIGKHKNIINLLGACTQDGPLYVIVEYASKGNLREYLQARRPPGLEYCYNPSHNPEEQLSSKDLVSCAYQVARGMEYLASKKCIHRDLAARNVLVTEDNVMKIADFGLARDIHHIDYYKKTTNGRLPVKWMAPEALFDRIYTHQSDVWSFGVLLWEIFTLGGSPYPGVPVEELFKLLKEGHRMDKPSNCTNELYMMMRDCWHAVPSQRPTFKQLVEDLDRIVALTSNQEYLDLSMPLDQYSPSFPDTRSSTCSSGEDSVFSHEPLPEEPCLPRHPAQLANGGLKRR

Row | IC50 (FGFR2) [nM] | IC50 (FGFR1) [nM] | IC50 (FGFR3) [nM] | Compound | FGFR3 IC50/FGFR2 IC50 (FGFR2) | FGFR1 IC50/FGFR2 IC50 (FGFR2)
1 | 1 to 10 | > 100 | > 100 | C=CC(=O)N1CCC2(CC=C(c3c(-c4cncc(F)c4)c4c(N)ncnc4n3C)CC2)CC1 [Example 27, 1-(9-(4-amino-5-(5-fluoropyridin-3-yl)-7-methyl-7H-pyrrolo[2,3-d]pyrimidin-6-yl)-3-azaspiro[5.5]undec-8-en-3-yl)prop-2-en-1-one] | H (a selectivity ratio greater than 500 but less than or equal to 1000) | F (a selectivity ratio greater than 50 but less than or equal to 150)
2 | ≤ 1 | > 100 | > 100 | C=CC(=O)N1CCC2(CC=C(c3c(-c4ccc(OC)nc4)c4c(N)ncnc4n3C)CC2)CC1 [Example 30, 1-(9-(4-amino-5-(6-methoxypyridin-3-yl)-7-methyl-7H-pyrrolo[2,3-d]pyrimidin-6-yl)-3-azaspiro[5.5]undec-8-en-3-yl)prop-2-en-1-one] | H (a selectivity ratio greater than 500 but less than or equal to 1000) | G (a selectivity ratio greater than 150 but less than or equal to 500)
3 | > 100 | > 100 | > 100 | C=CC(=O)N1CCC2(CC=C(c3c(-c4ccnnc4)c4c(N)ncnc4n3C)CC2)CC1 [Example 31, 1-(9-(4-amino-7-methyl-5-(pyridazin-4-yl)-7H-pyrrolo[2,3-d]pyrimidin-6-yl)-3-azaspiro[5.5]undec-8-en-3-yl)prop-2-en-1-one] | – | –
4 | 30 to 100 | > 100 | > 100 | C=CC(=O)N1CCC2(CC=C(c3c(-c4cncnc4)c4c(N)ncnc4n3C)CC2)CC1 [Example 32, 1-(9-(4-amino-7-methyl-5-(pyrimidin-5-yl)-7H-pyrrolo[2,3-d]pyrimidin-6-yl)-3-azaspiro[5.5]undec-8-en-3-yl)prop-2-en-1-one] | G (a selectivity ratio greater than 150 but less than or equal to 500) | F (a selectivity ratio greater than 50 but less than or equal to 150)
5 | 1 to 10 | > 100 | > 100 | C=CC(=O)N1CCC2(CC=C(c3c(-c4ncccn4)c4c(N)ncnc4n3C)CC2)CC1(C)C (centres unmarked) [Example 34, 1-(9-(4-amino-7-methyl-5-(pyrimidin-2-yl)-7H-pyrrolo[2,3-d]pyrimidin-6-yl)-2,2-dimethyl-3-azaspiro[5.5]undec-8-en-3-yl)prop-2-en-1-one] | J (a selectivity ratio greater than 2000) | H (a selectivity ratio greater than 500 but less than or equal to 1000)
6 | 10 to 30 | > 100 | > 100 | C=CC(=O)N1CCC2(CC=C(c3c(-c4nccc(C)n4)c4c(N)ncnc4n3C)CC2)CC1 [Example 35, 1-(9-(4-amino-7-methyl-5-(4-methylpyrimidin-2-yl)-7H-pyrrolo[2,3-d]pyrimidin-6-yl)-3-azaspiro[5.5]undec-8-en-3-yl)prop-2-en-1-one] | G (a selectivity ratio greater than 150 but less than or equal to 500) | F (a selectivity ratio greater than 50 but less than or equal to 150)
7 | 1 to 10 | 30 to 100 | > 100 | C=CC(=O)N1CCC2(CC=C(c3c(-c4ccc(OC5CC5)cc4)c4c(N)ncnc4n3C(F)F)CC2)CC1 [Example 36, 1-(9-(4-amino-5-(4-cyclopropoxyphenyl)-7-(difluoromethyl)-7H-pyrrolo[2,3-d]pyrimidin-6-yl)-3-azaspiro[5.5]undec-8-en-3-yl)prop-2-en-1-one] | G (a selectivity ratio greater than 150 but less than or equal to 500) | F (a selectivity ratio greater than 50 but less than or equal to 150)
8 | 10 to 30 | > 100 | > 100 | C=CC(=O)N1CCC2(CC=C(c3c(-c4ccc(C#N)nc4)c4c(N)ncnc4n3C(F)F)CC2)CC1 [Example 37, 5-(6-(3-acryloyl-3-azaspiro[5.5]undec-8-en-9-yl)-4-amino-7-(difluoromethyl)-7H-pyrrolo[2,3-d]pyrimidin-5-yl)picolinonitrile] | G (a selectivity ratio greater than 150 but less than or equal to 500) | G (a selectivity ratio greater than 150 but less than or equal to 500)
9 | ≤ 1 | 30 to 100 | 30 to 100 | [2H]C([2H])([2H])Oc1ccc(-c2c(C3=C(F)CC4(CC3)CCN(C(=O)C=C)CC4)n(C)c3ncnc(N)c23)cc1 [Example 38, 1-(9-(4-amino-5-(4-(methoxy-d3)phenyl)-7-methyl-7H-pyrrolo[2,3-d]pyrimidin-6-yl)-8-fluoro-3-azaspiro[5.5]undec-8-en-3-yl)prop-2-en-1-one] | F (a selectivity ratio greater than 50 but less than or equal to 150) | F (a selectivity ratio greater than 50 but less than or equal to 150)
10 | 1 to 10 | > 100 | > 100 | C=CC(=O)N1CCC2(CC=C(c3c(-c4ccc(OC)nc4)c4c(N)ncnc4n3C)CC2)CC1(C)C (centres unmarked) [Example 40, 1-(9-(4-amino-5-(6-methoxypyridin-3-yl)-7-methyl-7H-pyrrolo[2,3-d]pyrimidin-6-yl)-2,2-dimethyl-3-azaspiro[5.5]undec-8-en-3-yl)prop-2-en-1-one] | I (a selectivity ratio greater than 1000 but less than or equal to 2000) | G (a selectivity ratio greater than 150 but less than or equal to 500)
11 | 1 to 10 | > 100 | > 100 | C=CC(=O)N1CCC2(CC=C(c3c(-c4ccc(F)cc4)c4c(N)ncnc4n3C)CO2)CC1 [Example 41, 1-(3-(4-amino-5-(4-fluorophenyl)-7-methyl-7H-pyrrolo[2,3-d]pyrimidin-6-yl)-1-oxa-9-azaspiro[5.5]undec-3-en-9-yl)prop-2-en-1-one] | H (a selectivity ratio greater than 500 but less than or equal to 1000) | H (a selectivity ratio greater than 500 but less than or equal to 1000)
12 | 1 to 10 | > 100 | > 100 | C=CC(=O)N1CCC2(CC=C(c3c(-c4ncc(OC5COC5)cn4)c4c(N)ncnc4n3C)CC2)CC1 [Example 46, 1-(9-(4-amino-7-methyl-5-(5-(oxetan-3-yloxy)pyrimidin-2-yl)-7H-pyrrolo[2,3-d]pyrimidin-6-yl)-3-azaspiro[5.5]undec-8-en-3-yl)prop-2-en-1-one] | J (a selectivity ratio greater than 2000) | H (a selectivity ratio greater than 500 but less than or equal to 1000)

Row | Compound | IC50 (FGFR2) [nM] | IC50 (FGFR1) [nM] | IC50 (FGFR3) [nM] | FGFR3 IC50/FGFR2 IC50 (FGFR2) | FGFR1 IC50/FGFR2 IC50 (FGFR2)
13 | C=CC(=O)N1CCC2(CC=C(c3c(-c4ccc(OC5CC(C)C5)nc4)c4c(N)ncnc4n3C)CC2)CC1 (centres unmarked) [Example 25, 1-(9-(4-amino-7-methyl-5-(6-(3-methylcyclobutoxy)pyridin-3-yl)-7H-pyrrolo[2,3-d]pyrimidin-6-yl)-3-azaspiro[5.5]undec-8-en-3-yl)prop-2-en-1-one] | 1 to 10 | 30 to 100 | > 100 | F (a selectivity ratio greater than 50 but less than or equal to 150) | –
